Source: patent US11065343B2, “Compound bearing beta-galactoside-introduced self-immolative linker” (IntoCell Inc., priority 2016, dated 2021)
Where two headings read alike, the source gives them in different places. *1 amine or outer side, *2 acyl side, *3 side chain or, on linkers, in order; H or OH if unused. Where a SMILES comes first, the peptide text is derived from it. [ ]: non-standard residue; d: D form. ξ: configuration not given here. Dil(5ξ) = CCC(C)[C@@H]([C@@H](CC(=O)[*:2])OC)N(C)[*:1]; Dolaproine = CO[C@@H]([C@@H]1CCCN1)[C@@H](C)C(=O)O; NMeV = CN[C@H](C(=O)O)C(C)C; ξF = NC(Cc1ccccc1)C(=O)O

Key:
[1] = system: KB cancer cell line; assay: In vitro cytotoxicity of ligand-drug conjugates (MTT); assay type: cell-based, human; conditions: for IC50: read-out: Cell cytotoxicity IC50
Protocol: KB cancer cell line was seeded 30,000 cells per well of a 96-well plate, and after the culture for 24 hours, the drug MMAF-OMe was treated with a concentration of 0.0097˜10 nM (4-fold serial dilution), ligand-drug conjugate (B) prepared in Comparative Example 2 and ligand-drug conjugate (1) prepared in Example 2 were treated with a concentration of 0.0244-100 nM (4-fold serial dilution). The number of live cell after 72 hours was quantified by using 3-(4,5-dimethylthiazol-2-yl)-2,5-diphenyltetrazolium bromide (MTT) dye as chromogenic reagent. And then formazan reduced by oxidoreductase present in live cells were dissolved in DMSO, and quantified. […] Therefore, in the case of compound (1) to which galactoside linker is introduced, it could be confirmed that it has better efficacy compared with compound (B) to which glucuronide linker is introduced.

[2] = target: T1, folate receptor (Homo sapiens, UniProt P15328); assay: Binding affinity of ligand-drug conjugate to folic acid receptor (competition with FA-Cy5 tracer, polarized light)
T1 construct: Soluble plasma membrane from KB human cancer cells were isolated; endogenous in cells; host or cells: KB human cancer cells (plasma membrane protein extract, Abcam kit ab65400)
T1 sequence (P15328 25-234): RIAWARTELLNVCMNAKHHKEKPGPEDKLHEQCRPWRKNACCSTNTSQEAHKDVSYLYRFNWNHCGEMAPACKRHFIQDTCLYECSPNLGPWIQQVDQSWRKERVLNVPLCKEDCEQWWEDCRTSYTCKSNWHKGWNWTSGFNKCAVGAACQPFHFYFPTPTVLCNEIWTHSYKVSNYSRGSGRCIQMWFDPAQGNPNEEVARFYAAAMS
Protocol: Soluble plasma membrane from KB human cancer cells were isolated using plasma membrane protein extraction kit (ab65400) (Abcam company). […] After the preincubation for 15 minutes, FA-Cy5 tracer prepared in Preparation Example 10 was treated with a concentration of 1 nM, and after the reaction for 2 hours at 37° C., synergy2 microplate reader (BioTek company) (ex/em=635/688 nm) was used to measure polarized light.

[3] = target: T2, beta-galactosidase (Escherichia coli, UniProt P00722); assay: in vitro; assay type: biochemical, E. coli; conditions: Escherichia coli; beta-galactosidase, PBS buffer, 37° C., HPLC; read-out: hydrolysis half-life by enzyme
T2 construct: purchased Sigma G4155
T2 sequence (P00722 2-1024): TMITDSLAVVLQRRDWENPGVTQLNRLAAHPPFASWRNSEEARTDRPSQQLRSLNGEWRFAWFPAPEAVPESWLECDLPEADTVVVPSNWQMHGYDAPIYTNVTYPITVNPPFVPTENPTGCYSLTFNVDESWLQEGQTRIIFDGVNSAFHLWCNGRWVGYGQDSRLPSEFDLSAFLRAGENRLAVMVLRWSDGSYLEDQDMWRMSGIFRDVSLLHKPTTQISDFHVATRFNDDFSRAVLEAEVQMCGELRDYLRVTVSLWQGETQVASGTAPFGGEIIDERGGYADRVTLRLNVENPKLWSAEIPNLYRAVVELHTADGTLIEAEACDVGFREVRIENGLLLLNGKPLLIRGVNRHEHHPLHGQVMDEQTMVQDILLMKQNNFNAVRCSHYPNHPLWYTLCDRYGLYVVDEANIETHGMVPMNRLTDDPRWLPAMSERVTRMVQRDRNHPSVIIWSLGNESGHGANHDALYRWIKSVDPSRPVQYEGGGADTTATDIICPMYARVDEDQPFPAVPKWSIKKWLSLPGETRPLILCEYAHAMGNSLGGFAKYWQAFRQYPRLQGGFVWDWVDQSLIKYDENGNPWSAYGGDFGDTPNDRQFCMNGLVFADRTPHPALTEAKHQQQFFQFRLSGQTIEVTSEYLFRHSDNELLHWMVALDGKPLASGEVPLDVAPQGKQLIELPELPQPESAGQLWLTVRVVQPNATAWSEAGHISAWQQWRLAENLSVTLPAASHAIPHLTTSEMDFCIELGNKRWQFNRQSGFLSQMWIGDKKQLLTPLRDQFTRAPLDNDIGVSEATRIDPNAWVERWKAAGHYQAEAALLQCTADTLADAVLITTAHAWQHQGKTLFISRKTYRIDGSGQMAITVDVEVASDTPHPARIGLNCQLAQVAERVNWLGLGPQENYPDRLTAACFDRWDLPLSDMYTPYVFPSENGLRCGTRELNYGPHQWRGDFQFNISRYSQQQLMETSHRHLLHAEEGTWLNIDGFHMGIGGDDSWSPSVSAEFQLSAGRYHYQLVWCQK
Protocol: (§1) In order to identify the reactivity of ligand-drug conjugate (1) of Example 2 to β-galactosidase, the difference of the reactivity to R-glucuronidase between it and ligand-drug conjugate (B) of Comparative Example 2 as a comparative material was compared.
(§2) Ligand-drug conjugate (1) of Example 2 and ligand-drug conjugate (B) of Comparative Example 2 were respectively dissolved in DMSO to a concentration of 9 mM, and then each of them was mixed with PBS buffer solution to prepare 500 μM of solution.
(§3) An enzyme reaction solution for ligand-drug conjugate (1) of Example 2 was prepared by adding 1 mg/mL enzyme solution (10 μL) to the mixed solution comprising PBS buffer solution (440 μL) and 500 μM ligand-drug conjugate (1) solution (50 μL) of Example 2, then the reaction was initiated in 37° C. of the incubator.
(§4) Beta-galactosidase enzyme (Sigma G4155) in E. coli was used for the reaction mixture comprising ligand-drug conjugate (1) of Example 2 and beta-glucuronidase enzyme (Sigma G7396) in E. coli was used for the reaction mixture comprising ligand-drug conjugate (B) of Comparative Example 2 for the comparison experiment.
(§5) That is, in the case of compound (1) to which galactoside linker is introduced, it could be confirmed that it has more rapid hydrolysis rate 6 times or more, relative to comparison compound (B) to which glucuronide linker is introduced.

[4] = target: T3, Beta-galactosidase enzyme (Sigma G4155) in E. coli (Escherichia coli, UniProt P00722); assay: in vitro; assay type: biochemical; conditions: (1) with beta-galactosidase versus (B) with beta-glucuronidase
T3 construct: purchased Sigma G4155
T3 sequence (P00722 2-1024): as above
Protocol: as §1, §2, §3, §4, §5

Row | SMILES | IC50 ([1]; KB cell, 72 hours, MTT) | cytotoxicity better than conjugate (B) ([1]; KB cell, relative to conjugate (B)) | IC50 [2] | binding affinity (IC50) better than (B) ([2]; relative to ligand-drug conjugate (B)) | half-life at 50 µM [3] | more rapid hydrolysis rate relative to comparison compound (B) [4] | IC50 ([1]; Homo sapiens, KB, 72 h)
1 | CCC(C)[C@@H]([C@@H](CC(=O)N1CCC[C@H]1[C@H](OC)[C@@H](C)C(=O)N[C@@H](Cc1ccccc1)C(=O)O)OC)N(C)C(=O)[C@@H](NC(=O)[C@H](C(C)C)N(C)C(=O)OCc1ccc(O[C@@H]2O[C@H](CO)[C@H](O)[C@H](O)[C@H]2O)c(C(=O)NCCOCCOCCOCc2cn(CCC(=O)N[C@@H](CCCCN)C(=O)NCCOCCOCCNC(=O)CC[C@H](NC(=O)c3ccc(NCc4cnc5nc(N)[nH]c(=O)c5n4)cc3)C(=O)O)nn2)c1)C(C)C (stereo partly shown) [ligand-drug conjugate (1)] | 0.44 ± 0.12 nM | about twofold | 17.5 nM | 2.5 fold | 34.7 min | ≥ 6 times | –
2 | CCC(C)[C@@H]([C@@H](CC(=O)N1CCC[C@H]1[C@H](OC)[C@@H](C)C(=O)NC(Cc1ccccc1)C(=O)OC)OC)N(C)C(=O)[C@@H](NC(=O)[C@@H](NC)C(C)C)C(C)C (stereo partly shown) [MMAF-OMe, reference compound] (H-[NMeV]V[Dil(5ξ)][Dolaproine][ξF]-OMe) | – | – | – | – | – | – | 0.38 ± 0.17 nM
